Data from patent publication US10987339B2, “Uses of butylidenephthalide” (EVERFRONT BIOTECH INC., priority 2015, dated 2021).

Legend:
[1] = tested on: HNC-TIC-like oral stem cells (ALDH1+CD44+-1 cell line and ALDH1+CD44+-2 cell line); assay: MTT assay, viability of HNC-TIC-like oral stem cells; type: cell-based; settings: ALDH1+CD44+-1 and ALDH1+CD44+-2 cell lines, 0, 25, 50 and 100 μg/ml BP, 24 hours, FIG. 1
Experimental: (§1) To investigate the effect of BP on inhibiting the growth of cancer stem cells, NHOKs (normal human oral keratinocytes) and HNC-TIC (head and neck cancer-derived tumor initiating cell)-like oral stem cells (i.e., ALDH1^+CD44^+-1 cell line or ALDH1^+CD44^+-2 cell line) were treated with different concentrations (0, 25, 50 and 100 μg/ml) of BP for 24 hours, and then, an MTT assay was utilized to analyzed the viabilities of NHOKs and HNC-TIC-like oral stem cells (i.e., ALDH1^+CD44^+-1 cell line and ALDH1^+CD44^+-2 cell line).

[2] = tested on: NHOKs (normal human oral keratinocytes); assay: MTT assay, viability of NHOKs; type: cell-based; settings: 24 hours
Experimental: as §1

ALDH = assay: ALDEFLUOR flow cytometry analysis of ALDH activity; type: cell-based; settings: group without DEAB addition, 0, 25 and 50 μg/ml BP, 24 hours, FIG. 4
Experimental: ALDH protein is also an important stemness-maintenance marker of cancer stem cells and participates in the regulation of the self-renewal and differentiation of cancer stem cells. HNC-TIC-like oral stem cells (i.e., ALDH1^+CD44^+-1 cell line or ALDH1^+CD44^+-2 cell line) were treated with different concentrations (0, 25 and 50 μg/ml) of BP for 24 hours, and then, 1×10^5 cells obtained from each group were separately suspended in 50 μl of a stem cell detection kit (i.e., ALDEEFLUOR array kit, purchased from […] Technologies Inc., Vancouver, Canada) buffer and the cell suspension of each group was separately added with ALDEFLUOR to a final concentration of 1 μM. Thereafter, a sample of each group was stained by […] and then analyzed by flow cytometry analysis to determine the ALDH activity of HNC-TIC-like oral stem cells (i.e., ALDH1^+CD44^+-1 cell line and ALDH1^+CD44^+-2 cell line).
The above experimental procedure was repeated, but the cell suspension of each group was further added with N,N-diethylaminobenzaldehyde (DEAB, i.e., an inhibitor of ALDH) to a final concentration of 150 μM of DEAB separately.

Sox-2 [3] = assay: Western blotting, Sox-2 expression in MiaPaCa-2 cells; type: cell-based; settings: MiaPaCa-2 cells, 0, 12.5, 25 and 50 μg/ml BP, 24 hours, FIG. 2
Experimental: (§2) It has been known that CD44, CD133, Sox-2 (sex-determining region Y protein (SRY)-related high-mobility group box 2) and Oct4 (octamerbinding transcription factor 4) proteins all are stemness-maintenance markers of cancer stem cells and participate in the regulation of the self-renewal and differentiation of cancer stem cells. MiaPaCa-2 cell line (i.e., a cell line of pancreatic cancer cells) was treated with different concentrations (0, 12.5, 25, and 50 μg/ml) of BP for 24 hours, and then, proteins were extracted from the cells to conduct Western blotting to determine the expressions of Sox-2, CD133 and CD44 proteins in the BP-treated MiaPaCa-2 cells. Yet another. HNC-TIC-like oral stem cells (i.e., ALDH1^+CD44^+-1 cell line or ALDH1^+CD44^+-2 cell line) were treated with different concentrations (0, 12.5, 25, and 50 μg/ml) of BP for 24 hours, and then, proteins were extracted from the cells to conduct Western blotting to determine the expressions of Sox-2 and Oct4 proteins in the BP-treated HNC-TIC-like oral stem cells (i.e., ALDH1^+CD44^+-1 cell line and ALDH1^+CD44^+-2 cell line).

CD44 = assay: Western blotting, CD44 expression in MiaPaCa-2 cells; type: cell-based; settings: MiaPaCa-2 cells, 0, 12.5, 25 and 50 μg/ml BP, 24 hours, FIG. 2
Experimental: as §2

Sox-2 [4] = assay: Western blotting, Sox-2 expression in HNC-TIC-like oral stem cells; type: cell-based; settings: ALDH1+CD44+-1 and ALDH1+CD44+-2 cell lines, 0, 12.5, 25 and 50 μg/ml BP, 24 hours, FIG. 3
Experimental: as §2

CD133 = assay: Western blotting, CD133 expression in MiaPaCa-2 cells; type: cell-based; settings: MiaPaCa-2 cells, 0, 12.5, 25 and 50 μg/ml BP, 24 hours, FIG. 2
Experimental: as §2

[5] = tested on: HNC-TIC-like oral stem cells stably transfected with GFP-tagged constructs; assay: Tumor initiating activity animal experiment (subcutaneous GFP-tagged HNC-TIC-like oral stem cells); type: in vivo, BALB/c nu/nu mice
Experimental: In this research, the effect of BP on inhibiting the tumor initiating activity of cancer stem cells was further investigated by animal experiments. First, 5-6 weeks old BALB/c nu/nu mice (weight 18-22 g) were bred under the same condition for 4 weeks. Then, HNC-TIC-like oral stem cells stably transfected with GFP-tagged constructs were injected (1×10^4 cells/0.1 mL/mouse) subcutaneously into the axilla of mice. After tumors reached 100 mm^3, mice were grouped into one control group and two experimental groups (three groups in total, n=3 per group). Then, one experimental group was injected daily with 100 mg/kg of BP for 6 days and another experimental group was injected daily with 200 mg/kg of BP for 6 days. The control group was injected daily with a vehicle (without BP) for 6 days. Ten days after the injection of BP or vehicle, the length and width were measured every 2 days (22 days in total), and then, the average tumor volume was calculated according to the following Formula 1. At the same time, the GFP signal (i.e., green fluorescence) of each group was detected and photographed by the IVIS Imaging system. The GFP intensity of each group was analyzed by Image-Pro Plus software. [length×width^2]/2 (unit: mm^3) Formula 1: […]

Oct4 = assay: Western blotting, Oct4 expression in HNC-TIC-like oral stem cells; type: cell-based; settings: ALDH1+CD44+-1 and ALDH1+CD44+-2 cell lines, 0, 12.5, 25 and 50 μg/ml BP, 24 hours, FIG. 3
Experimental: as §2

[6] = tested on: HNC-TIC-like oral stem cells (ALDH1+CD44+-1 cell line or ALDH1+CD44+-2 cell line); assay: Transwell invasion assay; type: cell-based
From the text: In this research, the effect of BP on inhibiting the migration and invasion of cancer stem cells was investigated by a transwell invasion assay system (i.e., Transwell® system, purchased from Corning, UK) with a polycarbonate filter membrane of 8-μm pore size (purchased from Corning, UK). First, the polycarbonate filter membrane was coated with Matrigel™ (purchased from BD Pharmingen, USA), and then, the coated membrane was placed in the […] of the transwell invasion assay system. Then, the lower chamber was filled with 10% serum-containing medium. On the other hand, HNC-TIC-like oral stem cells (i.e., ALDH1^+CD44^+-1 cell line or ALDH1^+CD44^+-2 cell line) were treated with different concentrations (0, 25 and 50 μg/ml) of BP for 24 hours, and then, the treated cells of each group was cultured in the upper chamber which was filled with serum-free medium, at a cell density of […] cells/100 μl for 24 hours. […] The invasion cancer cells of each group were counted and photographed over five visual fields of the membrane with the use of a 100-fold magnification under a microscope. The relative invasion ability of cells of each experimental group was calculated based on the result of the group treated with 0 μg/ml of BP.

[7] = tested on: HNC-TIC-like oral stem cells (ALDH1+CD44+-1 cell line or ALDH1+CD44+-2 cell line); assay: Soft agar colony formation assay; type: cell-based
Experimental: In this research, a soft agar colony formation assay was used to investigate the effect of BP on inhibiting the tumor initiating activity of cancer stem cells. First, HNC-TIC-like oral stem cells (i.e., ALDH1^+CD44^+-1 cell line or ALDH1^+CD44^+-2 cell line) were treated with different concentrations (0, 25 and 50 μg/ml) of BP for 24 hours, and then, the treated cells of each group was separately seeded in the top agar [containing DMEM (Dulbecco's Modified Eagle's Medium medium), 10% (v/v) Fetal Calf Serum (FCS) and 0.3% (w/v) agar] (purchased from Sigma-Aldrich) at an initial cell number of 2×10^4. On the other hand, a six-well culture dish was coated with the bottom agar [containing DMEM, 10% (v/v) FCS and 0.6% (w/v) agar](purchased from Sigma-Aldrich), 2 ml for each well. After the bottom agar was solidified, each group of the top agar (containing oral cancer stem cells) was respectively added onto the bottom agar in different wells of the dish, 2 ml for each well. […] Lastly, the bottom agar was stained with 0.005% crystal violet, the number of colonies (with a diameter ≥100 μm) was counted over five fields per well with the use of a microscope, and those fields were photographed. The relative colony-forming ability of cells of each experimental group was calculated based on the result of the group treated with 0 μg/ml of BP.

Q: How did the “viability of HNC-TIC-like oral stem cells” value [1] turn out when `CCCC=C1OC(=O)c2ccccc21` [BP, butylidenephthalide] was run?
A: decreased along with the increment in the concentration of BP

Q: What about the “viability of NHOKs” value ([2]; 0, 25, 50 and 100 μg/ml BP, MTT, FIG. 1) of the same compound?
A: did not decrease along with the increment in the concentration of BP

Q: What about the “cytotoxicity to normal cells” value ([2]; NHOKs, up to 100 μg/ml BP) of the same compound?
A: no cytotoxicity to normal cells

Q: And the “number of live cells with ALDH activity” value (ALDH)?
A: increased along with the increment in the concentration of BP

Q: What about the “expression of Sox-2 protein” value (Sox-2 [3]) of the same compound?
A: significantly decreased along with the increment in the concentration of BP

Q: What about the “expression of CD44 protein” value (CD44) of the same compound?
A: significantly decreased along with the increment in the concentration of BP

Q: And the “expression of Sox-2 protein” value (Sox-2 [4])?
A: significantly decreased along with the increment in the concentration of BP

Q: And the “expression of CD133 protein” value (CD133)?
A: significantly decreased along with the increment in the concentration of BP

Q: What about the tumor volume ([5]; 100 mg/kg and 200 mg/kg BP groups, daily for 6 days, compared to control group, FIG. 7B) of the same compound?
A: decreased over a period of time

Q: What about the GFP intensity ([5]; 100 mg/kg and 200 mg/kg BP groups, daily for 6 days, compared to control group, FIG. 7C, 7D) of the same compound?
A: significantly decreased

Q: And the “body weight of mice” value ([5]; 100 mg/kg or 200 mg/kg BP injected daily for 6 days, FIG. 7A)?
A: didn't change significantly

Q: What about the “expression of Oct4 protein” value (Oct4) of the same compound?
A: significantly decreased along with the increment in the concentration of BP

Q: And the “number of cells on the polycarbonate filter membrane” value ([6]; 0, 25 and 50 μg/ml BP for 24 hours, then 24 hours transwell, FIG. 5A)?
A: significantly reduced along with the increment in the concentration of BP

Q: What about the relative invasion ability ([6]; 0, 25 and 50 μg/ml BP, relative to 0 μg/ml group, FIG. 5B) of the same compound?
A: decreased along with the increment in the concentration of BP

Q: And the “number of colonies in the bottom agar” value ([7]; 0, 25 and 50 μg/ml BP for 24 hours, 4 weeks culture, FIG. 6A)?
A: significantly decreased along with the increment in the concentration of BP

Q: And the relative colony-forming ability ([7]; 0, 25 and 50 μg/ml BP, relative to 0 μg/ml group, FIG. 6B)?
A: decreased along with the increment in the concentration of BP
